In assay [1] the test system is SW620 (human colon carcinoma) cell line. The assay can be described thus: MTT cell proliferation assay, SW620. In kind it is cell-based. As to conditions: 1, 3 or 6 μM; MTT after 24, 48, 72 and 96 hours. Here is the method: (§1) The cell line B16F1 (mouse melanoma) were cultivated in DMEM+10% serum and seeded at 5000 cells/well in a total volume of 50 μl. The SW480 and SW620 (human colon carcinoma) cell lines were cultivated in L15 medium+10% fetal bovine serum and seeded at 20,000 cells per well in a total volume of 50 μl. SARP-1(Fz)delta7-Fc was added immediately at a concentration of 1, 3 or 6 μM.
(§2) Cell proliferation assay was evaluated by reduction of 3-(4,5-dimethylthiazol-2-yl)-2,5-diphenyltetrazolium bromide (MTT) after 24, 48, 72 and 96 hours of culture. For the test of cell proliferation, 5 μl and 10 μl of MTT solution were added to the cultures of B16F1, SW480 and SW620 cells, respectively. After the incubation period, cells were lysed in 200 μl DMSO, and optic density was determined at 570 and 630 nm. The positive control for inhibition of cell proliferation was DKK1-Fc used at a concentration of 1 μM during the experiment.
A general note: Tetrazolium dyes change colour on reduction, which living cells bring about.

The test system of assay [2] is B16F1 (mouse melanoma) cell line. The assay can be described thus: MTT cell proliferation assay, B16F1. In kind it is cell-based. As to the method: as §1, §2
Assay [3] relates to lung fibroblasts of patients with interstitial pulmonary fibrosis (IPF). The assay can be described thus: BrdU incorporation (cell proliferation ELISA) in primary lung fibroblasts from IPF patients. The format is cell-based, human. The following applies: for PDGF-increased BrdU incorporation: PDGF 10 ng/ml. Here is the method: To evaluate the effect of SARP-1(Fz)delta7-Fc, lung fibroblasts were obtained from lung explants of patients with interstitial pulmonary fibrosis (IPF) (N=3) and controls (N=3). Fibroblasts were cultured in 96 well cell culture plates in DMEM medium with high glucose (25 mM) and 10% Fetal Clone II (Hyclone) until they reached approximately 50% confluence. Fetal Clone II is an alternative to fetal bovine serum (FBS). Then the cells were cultured for 48 hours with Fetal Clone II at a concentration of 1%. […] Bromodeoxyuridine (5-bromo-2-deoxyuridine, BrdU) was added 24 hours later at a final concentration of 100 μM. After 24 hours of incubation, cells were fixed and lysed. Cell proliferation was evaluated with the cell proliferation ELISA BrdU colorimetric assay (Roche Diagnostics, Meylan, France) ELISA. The experiments were performed in the basal condition (without PDGF) and in the presence of PDGF (10 ng/ml), All experimental conditions were tested in triplicates and the mean value was calculated. For each experimental condition, the incorporation of BrdU was expressed as a percentage of the incorporation observed in the control condition in the same culture.
On the technique in general: Dividing cells build labelled thymidine or BrdU into new DNA.

For assay [4], the system named is SW480 (human colon carcinoma) cell line. The assay can be described thus: MTT cell proliferation assay, SW480. The format is cell-based. The following applies: 1, 3 or 6 μM; MTT after 24, 48, 72 and 96 hours. As to the method: as §1, §2
For assay [5], the system named is human hepatic stellate cells. Nature of the assay: Incorporation of 3H-thymidine into DNA of PDGF-BB-stimulated primary human hepatic stellate cells. In kind it is cell-based. As to conditions: PDGF-BB 10 ng/ml; 10, 1 and 0.1 μg/ml. Here is the method:
(§3) Human hepatic stellate cells (HSCs) were isolated from wedge sections of normal human liver unsuitable for transplantation. Liver tissue was digested with collagenase/pronase. HSC were separated from other liver nonparenchymal cells by ultracentrifugation over gradients of Stractan (Cellsep isotonic solution; Larex Inc., St. Paul, Minn.). HSC were cultured on plastic culture dishes in Iscove's modified Dulbecco's medium supplemented with 0.6 U/mL of insulin, 2.0 mmol/L of glutamine, 0.1 mmol/L of nonessential amino acids, 1.0 mmol/L of sodium pyruvate, antibiotic-antimycotic solution (all provided by Gibco Laboratories, Grand Island, N.Y.), and 20% fetal bovine serum (Imperial Laboratories, Andover, UK). All experiments were performed in triplicate and results are expressed as MEAN+SD. Statistical significance was evaluated by Student t test.
(§4) For this group of experiments the stimulus of choice was human recombinant PDGF-BB at the standard dose of 10 ng/ml. Canrenone (10 μM), whose inhibitory effect has been previously shown in the same cell preparations (Caligiuri et al., 2003), was used as a positive control of inhibition.
HSC were plated in 24 well plastic dishes and grown to confluence in complete cell culture medium containing 20% of fetal bovine serum (FBS). HSC were then deprived of serum for 48 hours and stimulated with PDGF-BB for additional 24 hours. […]

Assay [6] deals with murine Wnt1 and human Wnt2. The assay can be described thus: Wnt antagonistic activity, LEF-luciferase reporter assay with mixed Inducer and Reporter 293T cells. The format is cell-based. Here is the method: 293T cells expressing murine Wnt1 and human Wnt2 (Inducer Cells) and 293T cells expressing Luciferase under the control of LEF-site-linked promoter (Reporter Cells) were mixed at an equal ratio and seeded in 100 μl medium per well in a 96-well microtiter plate. The Inducer Cells by overexpressing Wnt1 and Wnt2 at its surface were able to induce an activation of the Wnt signaling pathway triggered by the interaction of the Wnt proteins with its receptor at the cell membrane of the Reporter Cells. The Reporter Cells in response to Wnt pathway activation expressed luciferase by the activation of Wnt responsive genes such as LEF.
The mixture was composed of about 10,000 Inducer Cells and 10,000 Reporter Cells per well. SARP-1(Fz)delta7-Fc was added to the culture medium at different concentrations (from 300 to 5 μg/ml). After 48 hours of incubation, the medium was discarded, and 40 μl lysis buffer were added to the cells. After 15 minutes of lysis on an orbital shaker at 4° C., the samples were submitted to two cycles of freezing and thawing followed by rigid shaking using a vortex (for 2 minutes) and sedimentation by centrifugation at 2000 rpm in V-shape microtiter plates.
Luciferase activities were normalized by total protein content in the lysate. Protein quantification was performed on 5 μl cell lysate using the BCA kit (Pierce) as known in the art. To measure the luciferase activity, 10 μl of cell lysate each was transferred into a 96-well microtiter plate. 15 μl of luciferin reagent was added to the sample and the quantification of the luminescence was counted during 10 seconds.
The results were expressed in percentage of Wnt activation. Thus, the maximal luciferase activity obtained with the mixture of Inducer and Reporter Cells corresponded to 100%.
(In general: In a reporter assay the amount or activity of a reporter protein is the signal.)

Assay [7] has as its system unilateral ureter ligation-induced renal fibrosis. Nature of the assay: Unilateral ureter obstruction (UUO) murine model of renal fibrosis. The format is in vivo, C57BL/6 mice. As to conditions: subcutaneous, 1.5 mg/ml, once a day, 21 days of treatment; p<0.05. Here is the method:
The in vivo activity of SARP-1(Fz)[…]-Fc was tested in an experimental model of obstructive nephropathy, which is unilateral ureter ligation-induced renal fibrosis (Vielhauer et al., 2001). Female inbred C57BL/6 mice weighing 20 to 26 g were kept in macrolone type III cages under a 12 h light/dark cycle. Water and standard chow were available ad libitum. Under general ether anesthesia, a low midline abdominal incision was performed and the ligation of the left distal ureter was made with a 2/0 Mersilene suture, resulting in a unilateral ureter obstruction (UUO). Unobstructed contralateral kidneys served as controls. […] The first dose was administered immediately after UUO once a day for 21 days Mice were killed at 7 and 21 days after UUO by cervical dislocation under general anesthesia with inhaled ether. From each mouse cranial kidney halves were used for histological assessment. Ligated and contralateral kidney tissue was fixed for 24 hours at room temperature in 4% neutral buffered formalin and then embedded in paraffin. For quantitative analysis, 4 μm horizontal sections were cut. Every fifth of fifteen subsequent sections, chosen by systematic uniformly random sampling, was used for analysis. […]

Assay [8] has as its system human hepatic stellate cells. The assay can be described thus: Cell proliferation assay (cell number/well) of PDGF-BB-stimulated primary human hepatic stellate cells. In kind it is cell-based. As to the method:
as §3, §4
HSC were plated in 12 well dishes at 30% confluence in Iscove's modified Dulbecco's medium supplemented with 0.6 U/mL insulin, 2.0 mmol/L of glutamine, 0.1 mmol/L nonessential amino acids, 1.0 mmol/L of sodium pyruvate, antibiotic-antimycotic solution (all from Gibco Laboratories, Grand Island, N.Y.), and 20% fetal bovine serum (Imperial Laboratories, Andover, UK). After 24 hours the HSC were incubated with serum-free medium containing PDGF-BB to induce activation at a concentration of 10 ng/ml with or without SARP-1(Fz)delta7-Fc at a concentration of 10, 1 and 0.1 μg/ml. HSC were harvested and cell number/well were determined after 2, 4, and 6 days of culture. At each time point fresh medium and experimental conditions were added at the remaining wells.

“Also recorded” adds a separate entry of the source.

Take “SARP-1(Fz)delta7-Fc: Fusion of mature SARP-1 without Netrin domain, lacking first seven N-terminal amino acids, with human IgG1 Fc region”: the “inhibition of cell proliferation of SW620” value in assay [1] is listed as “able to inhibit the cell proliferation; also recorded: inhibited cell proliferation”. The “level of inhibition of B16F1 proliferation compared with positive control DKK1-Fc (1 μM)” value in assay [2] (6 μM) is given as “comparable to the one obtained by using the positive control”. Also, the “inhibition of proliferation of B16F1 melanoma cell line” value in assay [2] (1 to 6 μM, MTT after 24, 48, 72 and 96 hours) is recorded as “significant inhibition; also recorded: inhibited cell proliferation”. Besides, the “PDGF-increased BrdU incorporation” value in assay [3] (1 μg/ml) is listed as “no effect”; in assay [3] (10 μg/ml), “no effect”; in assay [3] (100 μg/ml), “profoundly inhibited”; in assay [3] (concentration not given) it was “reduced BrdU incorporation”. In addition, the “BrdU incorporation, basal condition” value in assay [3] (without PDGF, in b213 at the highest dose tested) was “reduced BrdU incorporation”. The “inhibition of cell proliferation of SW480” value in assay [4] is “able to inhibit the cell proliferation; also recorded: inhibited cell proliferation”. Also, in assay [5], the “PDGF-induced DNA synthesis in primary human hepatic stellate cells cultures” value was “reduced significantly”. The IC50 in assay [6] (48 hours incubation, 300 to 5 μg/ml, read-out: IC50, reduction of luciferase activity) is 750 nM. Further, the “Emax reached, inhibition of Wnt 1 and Wnt 2 activation” value in assay [6] (FIG. 3 legend) stood at 80%. Further, the EC50 in assay [6] (FIG. 3 legend, read-out: EC50, inhibition of Wnt 1 and Wnt 2 activation in a reporter cellular assay) came to 750 nM. In addition, in assay [6] (at concentration from 150 to 300 μg/ml), the “maximum inhibition of luciferase activity” value was 80%. In assay [7], the “alfa smooth muscle actin (α-SMA) accumulation, myofibroblast marker, histological analysis” value is listed as “reduction; also recorded: decreased”. Besides, the “renal fibrosis by morphometric analysis of the changes in the tubular interstitium” value in assay [7] is “reduction of renal fibrosis”. The “inhibitory effect on PDGF-induced hepatic stellate cells” value in assay [8] (10.0 μg/ml after 2, 4 and 6 days of culture) is on record as “more prominent”; in assay [8] (dose of 1 μg/ml after 2 days of culture), “statistically significant”. Moreover, the “PDGF-induced cell growth of hepatic stellate cells” value in assay [8] (10.0 μg/ml for 2, 4 or 6, PDGF-BB 10 ng/ml) is recorded as “significantly decreased”.

For orientation: IC50 means the concentration that gives 50% inhibition. Usually EC50 stands for the concentration that produces a half-maximal response.

These data come from US20100260785A1, “SARP-1 Fusion Proteins and Uses Thereof” (priority 2007, published 2010).
